System: 186277-243-T-J2-PDC complex spheroids, viability
Test: Anticancer human tumor 186277-243-T-J2-PDC patient-derived colon adenocarcinoma cell line growth inhibition [RAS]
Conditions: for IC50: curve of first compound; for viability, T/C: stronger effect = lower value
Method in brief: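 Agents were tested in combination matrices in half-log decrements from a top concentration at or near clinical Cmax (10 microM if undetermined). Targets were multi-cell spheroids of tumour lines plus HUVEC and MSC stromal cells.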

[1] = second compound 0.000949 µM, first compound 0.00316 µM
[2] = second compound 0.000949 µM, first compound 0.01 µM
[3] = second compound 0.000949 µM, first compound 0.0316 µM
[4] = second compound 0.000949 µM, first compound 0.1 µM
[5] = second compound 0.000949 µM, first compound 0.316 µM
[6] = second compound 0.000949 µM, first compound 1 µM
[7] = second compound 0.003 µM, first compound 0.00316 µM
[8] = second compound 0.003 µM, first compound 0.01 µM
[9] = second compound 0.003 µM, first compound 0.0316 µM
[10] = second compound 0.003 µM, first compound 0.1 µM
[11] = second compound 0.003 µM, first compound 0.316 µM
[12] = second compound 0.003 µM, first compound 1 µM
[13] = second compound 0.00949 µM, first compound 0.00316 µM
[14] = second compound 0.00949 µM, first compound 0.01 µM
[15] = second compound 0.00949 µM, first compound 0.0316 µM
[16] = second compound 0.00949 µM, first compound 0.1 µM
[17] = second compound 0.00949 µM, first compound 0.316 µM
[18] = second compound 0.00949 µM, first compound 1 µM
[19] = second compound 0.03 µM, first compound 0.00316 µM
[20] = second compound 0.03 µM, first compound 0.01 µM
[21] = second compound 0.03 µM, first compound 0.0316 µM
[22] = second compound 0.03 µM, first compound 0.1 µM
[23] = second compound 0.03 µM, first compound 0.316 µM
[24] = second compound 0.03 µM, first compound 1 µM
[25] = second compound 0.0949 µM, first compound 0.00316 µM
[26] = second compound 0.0949 µM, first compound 0.01 µM
[27] = second compound 0.0949 µM, first compound 0.0316 µM
[28] = second compound 0.0949 µM, first compound 0.1 µM
[29] = second compound 0.0949 µM, first compound 0.316 µM
[30] = second compound 0.0949 µM, first compound 1 µM
[31] = second compound 0.3 µM, first compound 0.00316 µM
[32] = second compound 0.3 µM, first compound 0.01 µM
[33] = second compound 0.3 µM, first compound 0.0316 µM
[34] = second compound 0.3 µM, first compound 0.1 µM
[35] = second compound 0.3 µM, first compound 0.316 µM
[36] = second compound 0.3 µM, first compound 1 µM
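Further: spheroids exposed to compounds for 7 days before viability read.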

## C=CC(=O)N1CCN(c2nc(OCC3CCCN3C)nc3c(F)c(-c4nc(N)cc(C)c4C(F)(F)F)c(Cl)cc23)C(C)C1 (stereo unspecified) + CCn1c(-c2cc(N3CCN(C)CC3)cnc2C(C)OC)c2c3cc(ccc31)-c1csc(n1)CC(NC(=O)C1CC1C)C(=O)N1CCCC(N1)C(=O)OCC(C)(C)C2
Second compound 0.000949 µM
  IC50: > 1000 nM
Second compound 0.003 µM
  IC50: > 1000 nM
Second compound 0.00949 µM
  IC50: < 3.16 nM
Second compound 0.03 µM
  IC50: < 3.16 nM
Second compound 0.0949 µM
  IC50: < 3.16 nM
Second compound 0.3 µM
  IC50: < 3.16 nM
[1]
  viability, T/C: 100%
[2]
  viability, T/C: 95.3%
[3]
  viability, T/C: 97.8%
[4]
  viability, T/C: 82%
[5]
  viability, T/C: 96%
[6]
  viability, T/C: 95.7%
[7]
  viability, T/C: 93.8%
[8]
  viability, T/C: 79%
[9]
  viability, T/C: 74.8%
[10]
  viability, T/C: 100%
[11]
  viability, T/C: 90.7%
[12]
  viability, T/C: 91.3%
[13]
  viability, T/C: 50.9%
[14]
  viability, T/C: 43.2%
[15]
  viability, T/C: 45.5%
[16]
  viability, T/C: 47%
[17]
  viability, T/C: 49.9%
[18]
  viability, T/C: 42.9%
[19]
  viability, T/C: 15.2%
[20]
  viability, T/C: 15.7%
[21]
  viability, T/C: 14%
[22]
  viability, T/C: 15.6%
[23]
  viability, T/C: 16.7%
[24]
  viability, T/C: 13.9%
[25]
  viability, T/C: 7.43%
[26]
  viability, T/C: 6.42%
[27]
  viability, T/C: 6.99%
[28]
  viability, T/C: 6.92%
[29]
  viability, T/C: 7.72%
[30]
  viability, T/C: 6.75%
[31]
  viability, T/C: 6.06%
[32]
  viability, T/C: 5.29%
[33]
  viability, T/C: 6.03%
[34]
  viability, T/C: 5.77%
[35]
  viability, T/C: 6.02%
[36]
  viability, T/C: 5.32%

## CC1(C)CCC(Nc2ncc(C(F)(F)F)c(-c3c[nH]c4c(P(C)(C)=O)c(C#N)ccc34)n2)CN1 (stereo unspecified) + CCn1c(-c2cc(N3CCN(C)CC3)cnc2C(C)OC)c2c3cc(ccc31)-c1csc(n1)CC(NC(=O)C1CC1C)C(=O)N1CCCC(N1)C(=O)OCC(C)(C)C2
Second compound 0.000949 µM
  IC50: 95.3 nM
Second compound 0.003 µM
  IC50: 44.3 nM
Second compound 0.00949 µM
  IC50: < 0.949 nM
Second compound 0.03 µM
  IC50: < 0.949 nM
Second compound 0.0949 µM
  IC50: < 0.949 nM
Second compound 0.3 µM
  IC50: < 0.949 nM
Second compound 0.000949 µM, first compound 0.000949 µM
  viability, T/C: 103%
Second compound 0.000949 µM, first compound 0.003 µM
  viability, T/C: 104%
Second compound 0.000949 µM, first compound 0.00949 µM
  viability, T/C: 88%
Second compound 0.000949 µM, first compound 0.03 µM
  viability, T/C: 68.5%
Second compound 0.000949 µM, first compound 0.0949 µM
  viability, T/C: 49.8%
Second compound 0.000949 µM, first compound 0.3 µM
  viability, T/C: 43.3%
Second compound 0.003 µM, first compound 0.000949 µM
  viability, T/C: 96.8%
Second compound 0.003 µM, first compound 0.003 µM
  viability, T/C: 80.2%
Second compound 0.003 µM, first compound 0.00949 µM
  viability, T/C: 82.1%
Second compound 0.003 µM, first compound 0.03 µM
  viability, T/C: 55.1%
Second compound 0.003 µM, first compound 0.0949 µM
  viability, T/C: 37.4%
Second compound 0.003 µM, first compound 0.3 µM
  viability, T/C: 31.4%
Second compound 0.00949 µM, first compound 0.000949 µM
  viability, T/C: 48.1%
Second compound 0.00949 µM, first compound 0.003 µM
  viability, T/C: 42.9%
Second compound 0.00949 µM, first compound 0.00949 µM
  viability, T/C: 31.9%
Second compound 0.00949 µM, first compound 0.03 µM
  viability, T/C: 22.6%
Second compound 0.00949 µM, first compound 0.0949 µM
  viability, T/C: 18.2%
Second compound 0.00949 µM, first compound 0.3 µM
  viability, T/C: 18.2%
Second compound 0.03 µM, first compound 0.000949 µM
  viability, T/C: 14.1%
Second compound 0.03 µM, first compound 0.003 µM
  viability, T/C: 14%
Second compound 0.03 µM, first compound 0.00949 µM
  viability, T/C: 10.6%
Second compound 0.03 µM, first compound 0.03 µM
  viability, T/C: 9.74%
Second compound 0.03 µM, first compound 0.0949 µM
  viability, T/C: 10.6%
Second compound 0.03 µM, first compound 0.3 µM
  viability, T/C: 8.92%
Second compound 0.0949 µM, first compound 0.000949 µM
  viability, T/C: 7.13%
Second compound 0.0949 µM, first compound 0.003 µM
  viability, T/C: 6.88%
Second compound 0.0949 µM, first compound 0.00949 µM
  viability, T/C: 5.95%
Second compound 0.0949 µM, first compound 0.03 µM
  viability, T/C: 5.82%
Second compound 0.0949 µM, first compound 0.0949 µM
  viability, T/C: 6.47%
Second compound 0.0949 µM, first compound 0.3 µM
  viability, T/C: 5.47%
Second compound 0.3 µM, first compound 0.000949 µM
  viability, T/C: 5.71%
Second compound 0.3 µM, first compound 0.003 µM
  viability, T/C: 5.48%
Second compound 0.3 µM, first compound 0.00949 µM
  viability, T/C: 4.65%
Second compound 0.3 µM, first compound 0.03 µM
  viability, T/C: 4.88%
Second compound 0.3 µM, first compound 0.0949 µM
  viability, T/C: 4.85%
Second compound 0.3 µM, first compound 0.3 µM
  viability, T/C: 4.54%

## C=CC(=O)Nc1cc(Nc2nccc(-c3cn(C)c4ccccc34)n2)c(OC)cc1N(C)CCN(C)C + CCn1c(-c2cccnc2C(C)OC)c2c3cc(ccc31)N1CCOC(CC(NC(=O)C(C(C)C)N(C)C(=O)C3(F)CCN(C(=O)C#CC(C)(C)N(C)C)CC3)C(=O)N3CCCC(N3)C(=O)OCC(C)(C)C2)C1
Second compound 0.000949 µM
  IC50: > 1000 nM
Second compound 0.003 µM
  IC50: > 1000 nM
Second compound 0.00949 µM
  IC50: > 1000 nM
Second compound 0.03 µM
  IC50: > 1000 nM
Second compound 0.0949 µM
  IC50: > 1000 nM
Second compound 0.3 µM
  IC50: > 1000 nM
[1]
  viability, T/C: 94.2%
[2]
  viability, T/C: 86.9%
[3]
  viability, T/C: 90.4%
[4]
  viability, T/C: 83.8%
[5]
  viability, T/C: 103%
[6]
  viability, T/C: 95.7%
[7]
  viability, T/C: 101%
[8]
  viability, T/C: 107%
[9]
  viability, T/C: 107%
[10]
  viability, T/C: 109%
[11]
  viability, T/C: 110%
[12]
  viability, T/C: 91.6%
[13]
  viability, T/C: 116%
[14]
  viability, T/C: 107%
[15]
  viability, T/C: 111%
[16]
  viability, T/C: 104%
[17]
  viability, T/C: 121%
[18]
  viability, T/C: 81%
[19]
  viability, T/C: 96.9%
[20]
  viability, T/C: 97.4%
[21]
  viability, T/C: 106%
[22]
  viability, T/C: 91.8%
[23]
  viability, T/C: 101%
[24]
  viability, T/C: 82.2%
[25]
  viability, T/C: 109%
[26]
  viability, T/C: 123%
[27]
  viability, T/C: 119%
[28]
  viability, T/C: 123%
[29]
  viability, T/C: 106%
[30]
  viability, T/C: 78.3%
[31]
  viability, T/C: 105%
[32]
  viability, T/C: 105%
[33]
  viability, T/C: 109%
[34]
  viability, T/C: 103%
[35]
  viability, T/C: 82.8%
[36]
  viability, T/C: 73.1%

Reference: PubChem BioAssay AID2060908 (Molecular Pharmacology Branch, DTP, NCI, 2025)
